Assays:
[1] = target: T1, Translocator protein (TSPO) (Rattus norvegicus, UniProt P16257); experiment: In vivo [^18F]-PBR111 PET imaging, Vt by two-compartment model with metabolite-corrected plasma input; set-up: Tissue distribution volume (Vt): unit not given here
T1 construct: from tissue; host or cells: brain of living male Wistar rats (control and kainic acid-induced status epilepticus)
Description: Seven days post-SE, rats were anaesthetised for PET imaging using isoflurane (induction 5%, maintenance 1% to 3%, in medical oxygen), and body temperature was maintained using a feedback-regulated heating pad. A catheter was implanted in the femoral artery as described above. The animal was then placed into the field-of-view of the INVEON PET/CT scanner (Siemens Medical Solutions, Knoxville, TN, USA), and physiological parameters (heart rate, respiration and body temperature) were monitored (BioVet, m2m Imaging Corp., Cleveland, OH, USA) for the entire scanning period. To avoid movement and fix tubing, the animal was restrained in the supine position using a webbed sock and adhesive tape.
The PET scan was started 20 to 30 s before the 1-min infusion of radiotracer (ID = 12.5 to 29.0 MBq, 0.05 to 0.29 nmol, max 0.4 ml in volume, as described above) for the duration of 60 min. Femoral arterial blood samples (approximately 50 μl/sample) were taken at 15-s intervals for 4 min after the commencement of the PET scan, and then at 10-, 20-, 30- and 50-min post-injections. In the last sample (100 μl), metabolites were analysed to confirm the standard metabolite correction and to calculate the partition coefficient at 50 min. Heparinised saline (20 IU) was administered after blood sampling to maintain the blood volume and to prevent hypotension. Plasma samples were collected after 10-min centrifugation of whole blood at 3,000 rpm. Whole blood and plasma samples were counted in a Wallac γ-counter, decay-corrected and weight-normalised. At the end of the PET scanning, a 10-min 70 kV/500 μA computed tomography (CT) scan was performed on each animal (for co-registration with PET data and magnetic resonance imaging (MRI) atlas).
Coincidence events were acquired into list mode files and then histogrammed into […] consecutive frames of variable duration (8 × 15 s, 6 × 20 s, 6 × 60 s, 3 × 180 s, and 5 × 500 s). The volumes were then reconstructed with an iterative algorithm 3D-OSEM/FastMap. PET images (128 × 128 × 159) were co-registered with CT scans and mapped to a MRI-based rat brain atlas. Left and right time activity curves (TACs) were derived from eight VOIs such as the frontal cortex, striatum, parietal cortex, hippocampus, thalamus, amygdala, occipital cortex and colliculi using the Anatomist package ( http://brainvisa.info). Also, the hypothalamus, brainstem, pons and cerebellum were extracted from the reconstructed images. Data were then converted into activity concentration (kBq/ml) using cross calibration factors.
Firstly, a two-compartment model was used to assess the ‘apparent’ volume of distribution (Vt), or the ‘volume’ of the tracer would occupy if the tracers were to adopt the same concentration in the tissue as in the blood. For each VOI, Vt was calculated using their TACs, the metabolite-corrected plasma curve as input function and the whole blood curve to model the kinetics of the vascular fraction (5%) in the cerebral tissue.

[2] = Stability of [^18F]-PBR111 in whole rat blood (1 h on the bench); format: in vitro ADME; conditions: samples from 2- and 5-min post-injection left on the bench for 1 h vs processed immediately
Experimental: Animals were injected intravenously with [^18F]-PBR111 (injected dose (ID) = 14.1 to 38.7 MBq). The tracer was infused via the dorsal penile vein (maximum volume of 0.3 ml) using a Harvard Apparatus Pump 11 plus syringe pump (Holliston, MA, USA) over a constant time interval of 1 min. The line was flushed with saline, and the remaining radioactivity was measured in the line and syringe. Different ranges of tracer mass (0.07 to 4.00 nmol) were injected to evaluate whether this would affect the tracer metabolism. Arterial blood samples (0.2 ml) were withdrawn via a cannula implanted in the femoral artery from 2 to 60 min after the start of injection. The whole blood was then centrifuged at 3,000 rpm for 10 min, and the plasma was collected. Plasma samples (0.1 ml) were weighed and the radioactivity was measured in a Wallac γ-counter. At 2- and 5-min post-injections, the samples were taken in duplicate. One sample was left on the bench for 1 h, and the other was processed immediately to evaluate the stability in whole rat blood.

T1 sequence (P16257 whole entry): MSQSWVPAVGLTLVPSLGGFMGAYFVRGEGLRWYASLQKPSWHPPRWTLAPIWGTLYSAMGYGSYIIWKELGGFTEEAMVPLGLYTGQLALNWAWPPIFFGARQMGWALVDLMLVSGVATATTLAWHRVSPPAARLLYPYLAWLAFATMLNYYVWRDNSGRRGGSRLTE

CCN(CC)C(=O)Cc1c(-c2ccc(OCCC[18F])cc2)nc2ccc(Cl)cn12 [[^18F]-PBR111]
Increase (%) of Vt, KASE vs control ([1]; Amygdala, Left): 288% | Tissue distribution volume (Vt) ([1]; Amygdala, Left, Control (N = 4)): 5.3 ± 0.8 | Tissue distribution volume (Vt) ([1]; Amygdala, Left, KASE (N = 4), 7 days post-SE): 20.6 ± 2.8 | Increase (%) of Vt, KASE vs control ([1]; Amygdala, Right): 284% | Tissue distribution volume (Vt) ([1]; Amygdala, Right, Control (N = 4)): 6.1 ± 0.7 | Tissue distribution volume (Vt) ([1]; Amygdala, Right, KASE (N = 4), 7 days post-SE): 23.4 ± 4.8 | Increase (%) of Vt, KASE vs control ([1]; Brainstem): 41% | Tissue distribution volume (Vt) ([1]; Brainstem, Control (N = 4)): 4.7 ± 0.8 | Tissue distribution volume (Vt) ([1]; Brainstem, KASE (N = 4), 7 days post-SE): 6.7 ± 1.0 | Increase (%) of Vt, KASE vs control ([1]; Cerebellum): 43% | Tissue distribution volume (Vt) ([1]; Cerebellum, Control (N = 4)): 7.5 ± 0.8 | Tissue distribution volume (Vt) ([1]; Cerebellum, KASE (N = 4), 7 days post-SE): 10.6 ± 1.3 | Increase (%) of Vt, KASE vs control ([1]; Colliculi, Left): 44% | Tissue distribution volume (Vt) ([1]; Colliculi, Left, Control (N = 4)): 4.0 ± 1.0 | Tissue distribution volume (Vt) ([1]; Colliculi, Left, KASE (N = 4), 7 days post-SE): 5.8 ± 1.1 | Increase (%) of Vt, KASE vs control ([1]; Colliculi, Right): 70% | Tissue distribution volume (Vt) ([1]; Colliculi, Right, Control (N = 4)): 4.1 ± 1.1 | Tissue distribution volume (Vt) ([1]; Colliculi, Right, KASE (N = 4), 7 days post-SE): 6.9 ± 1.8 | Increase (%) of Vt, KASE vs control ([1]; Frontal cortex, Left): 108% | Tissue distribution volume (Vt) ([1]; Frontal cortex, Left, Control (N = 4)): 5.4 ± 1.0 | Tissue distribution volume (Vt) ([1]; Frontal cortex, Left, KASE (N = 4), 7 days post-SE): 11.3 ± 2.4 | Increase (%) of Vt, KASE vs control ([1]; Frontal cortex, Right): 98% | Tissue distribution volume (Vt) ([1]; Frontal cortex, Right, Control (N = 4)): 5.7 ± 1.2 | Tissue distribution volume (Vt) ([1]; Frontal cortex, Right, KASE (N = 4), 7 days post-SE): 11.2 ± 2.4 | Increase (%) of Vt, KASE vs control ([1]; Hippocampus, Left): 154% | Tissue distribution volume (Vt) ([1]; Hippocampus, Left, Control (N = 4)): 3.6 ± 0.5 | Tissue distribution volume (Vt) ([1]; Hippocampus, Left, KASE (N = 4), 7 days post-SE): 9.1 ± 1.1 | Increase (%) of Vt, KASE vs control ([1]; Hippocampus, Right): 159% | Tissue distribution volume (Vt) ([1]; Hippocampus, Right, Control (N = 4)): 3.6 ± 0.4 | Tissue distribution volume (Vt) ([1]; Hippocampus, Right, KASE (N = 4), 7 days post-SE): 9.4 ± 1.6 | Increase (%) of Vt, KASE vs control ([1]; Hypothalamus): 104% | Tissue distribution volume (Vt) ([1]; Hypothalamus, Control (N = 4)): 4.0 ± 0.7 | Tissue distribution volume (Vt) ([1]; Hypothalamus, KASE (N = 4), 7 days post-SE): 8.2 ± 1.4 | Increase (%) of Vt, KASE vs control ([1]; Occipital cortex, Left): 53% | Tissue distribution volume (Vt) ([1]; Occipital cortex, Left, Control (N = 4)): 9.8 ± 3.4 | Tissue distribution volume (Vt) ([1]; Occipital cortex, Left, KASE (N = 4), 7 days post-SE): 15.1 ± 3.5 | Increase (%) of Vt, KASE vs control ([1]; Occipital cortex, Right): 62% | Tissue distribution volume (Vt) ([1]; Occipital cortex, Right, Control (N = 4)): 9.3 ± 1.4 | Tissue distribution volume (Vt) ([1]; Occipital cortex, Right, KASE (N = 4), 7 days post-SE): 15.0 ± 1.4 | Increase (%) of Vt, KASE vs control ([1]; Parietal cortex, Left): 110% | Tissue distribution volume (Vt) ([1]; Parietal cortex, Left, Control (N = 4)): 4.5 ± 0.6 | Tissue distribution volume (Vt) ([1]; Parietal cortex, Left, KASE (N = 4), 7 days post-SE): 9.5 ± 1.1 | Increase (%) of Vt, KASE vs control ([1]; Parietal cortex, Right): 136% | Tissue distribution volume (Vt) ([1]; Parietal cortex, Right, Control (N = 4)): 4.9 ± 0.8 | Tissue distribution volume (Vt) ([1]; Parietal cortex, Right, KASE (N = 4), 7 days post-SE): 11.6 ± 2.0 | Increase (%) of Vt, KASE vs control ([1]; Pons): 78% | Tissue distribution volume (Vt) ([1]; Pons, Control (N = 4)): 4.2 ± 0.9 | Tissue distribution volume (Vt) ([1]; Pons, KASE (N = 4), 7 days post-SE): 7.5 ± 1.8 | Increase (%) of Vt, KASE vs control ([1]; Striatum, Left): 180% | Tissue distribution volume (Vt) ([1]; Striatum, Left, Control (N = 4)): 2.8 ± 0.6 | Tissue distribution volume (Vt) ([1]; Striatum, Left, KASE (N = 4), 7 days post-SE): 8.0 ± 1.2 | Increase (%) of Vt, KASE vs control ([1]; Striatum, Right): 156% | Tissue distribution volume (Vt) ([1]; Striatum, Right, Control (N = 4)): 3.0 ± 0.5 | Tissue distribution volume (Vt) ([1]; Striatum, Right, KASE (N = 4), 7 days post-SE): 7.8 ± 1.1 | Increase (%) of Vt, KASE vs control ([1]; Thalamus, Left): 173% | Tissue distribution volume (Vt) ([1]; Thalamus, Left, Control (N = 4)): 2.6 ± 0.5 | Tissue distribution volume (Vt) ([1]; Thalamus, Left, KASE (N = 4), 7 days post-SE): 7.0 ± 1.8 | Increase (%) of Vt, KASE vs control ([1]; Thalamus, Right): 155% | Tissue distribution volume (Vt) ([1]; Thalamus, Right, Control (N = 4)): 2.8 ± 0.5 | Tissue distribution volume (Vt) ([1]; Thalamus, Right, KASE (N = 4), 7 days post-SE): 7.1 ± 1.4 | Stability in whole rat blood [2]: not further metabolised in vitro in whole rat blood

From publication PMC3570346, “PET imaging of brain inflammation during early epileptogenesis in a rat model of temporal lobe epilepsy” (EJNMMI Research, 2012)
